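All cell lines were grown in 96-well plates and treated with compound for 48 hours. Abbreviation: GI50, concentration required for 50% inhibition of growth.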 Activity calls are given as the source filed them. Rule as the data show it: active = GI50 up to about 1.1 µM and inactive = higher.
Tests used:
Experiment in all cases: NCI-60 cell line screen, 48 h
[1] = system: SF-539
[2] = system: U-251
[3] = system: DMS-273
[4] = system: RPMI-8226
[5] = system: LOX IMVI
[6] = system: OVCAR-8
[7] = system: HCC 2998
[8] = system: CCRF-CEM
[9] = system: TK-10
[10] = system: KM12
[11] = system: SF-295
[12] = system: NCI-H23
[13] = system: HCT-15
[14] = system: HL-60
[15] = system: ACHN
[16] = system: SF-268
[17] = system: M14
[18] = system: NCI-H522
[19] = system: SR
[20] = system: SK-MEL-5
[21] = system: EKVX
[22] = system: OVCAR-4
[23] = system: COLO 205
[24] = system: HOP-62
[25] = system: OVCAR-3
[26] = system: NCI-H460
[27] = system: OVCAR-5
[28] = system: LXFL 529
[29] = system: SK-MEL-28
[30] = system: SW-620
[31] = system: DMS-114
[32] = system: K562
[33] = system: Malme-3M
[34] = system: HOP-18
[35] = system: MOLT-4
[36] = system: HCT-116
[37] = system: SN12C
[38] = system: UO-31
[39] = system: SNB-78
[40] = system: NCI-H226
[41] = system: IGROV-1
[42] = system: A498
[43] = system: HT-29
[44] = system: M19-MEL
[45] = system: UACC-62
[46] = system: SNB-75
[47] = system: SNB-19
[48] = system: A549
[49] = system: 786-0
[50] = system: HOP-92
[51] = system: SK-OV-3
[52] = system: SK-MEL-2
[53] = system: UACC-257
[54] = system: XF498
[55] = system: RXF 393
[56] = system: KM-20L2
[57] = system: CAKI-1
[58] = system: DLD-1

COc1c(C(=O)O)oc2c(OC)cccc12
GI50 [1]: > 100 µM (inactive) | GI50 [2]: > 100 µM (inactive) | GI50 [3]: > 100 µM (inactive) | GI50 [4]: > 100 µM (inactive) | GI50 [5]: > 100 µM (inactive) | GI50 [6]: > 100 µM (inactive) | GI50 [7]: > 100 µM (inactive) | GI50 [8]: > 100 µM (inactive) | GI50 [9]: > 100 µM (inactive) | GI50 [10]: > 100 µM (inactive) | GI50 [11]: > 100 µM (inactive) | GI50 [12]: > 100 µM (inactive) | GI50 [13]: > 100 µM | GI50 [14]: > 100 µM (inactive) | GI50 [15]: > 100 µM (inactive) | GI50 [16]: > 100 µM (inactive) | GI50 [17]: > 100 µM (inactive) | GI50 [18]: > 100 µM (inactive) | GI50 [19]: > 100 µM (inactive) | GI50 [20]: > 100 µM (inactive) | GI50 [21]: > 100 µM (inactive) | GI50 [22]: > 100 µM (inactive) | GI50 [23]: > 100 µM (inactive) | GI50 [24]: > 100 µM (inactive) | GI50 [25]: > 100 µM (inactive) | GI50 [26]: > 100 µM (inactive) | GI50 [27]: > 100 µM (inactive) | GI50 [28]: > 100 µM (inactive) | GI50 [29]: > 100 µM (inactive) | GI50 [30]: > 100 µM (inactive) | GI50 [31]: > 100 µM (inactive) | GI50 [32]: > 100 µM (inactive) | GI50 [33]: > 100 µM (inactive) | GI50 [34]: > 100 µM (inactive) | GI50 [35]: > 100 µM (inactive) | GI50 [36]: > 100 µM (inactive) | GI50 [37]: > 100 µM (inactive) | GI50 [38]: > 100 µM (inactive) | GI50 [39]: > 100 µM (inactive) | GI50 [40]: > 100 µM (inactive) | GI50 [41]: > 100 µM (inactive) | GI50 [42]: > 100 µM (inactive) | GI50 [43]: > 100 µM (inactive) | GI50 [44]: > 100 µM (inactive) | GI50 [45]: > 100 µM (inactive) | GI50 [46]: 29.9 µM (inactive) | GI50 [47]: > 100 µM (inactive) | GI50 [48]: > 100 µM (inactive) | GI50 [49]: > 100 µM (inactive) | GI50 [50]: > 100 µM (inactive) | GI50 [51]: > 100 µM (inactive) | GI50 [52]: > 100 µM (inactive) | GI50 [53]: > 100 µM (inactive)

CC(C)(C)NCC(COc1ccc([N+](=O)[O-])cc1)OP(c1ccccc1)c1ccccc1 (configuration not stated)
GI50 [1]: 53.1 µM (inactive) | GI50 [54]: 22.5 µM (inactive) | GI50 [2]: 41.5 µM (inactive) | GI50 [3]: 29.8 µM (inactive) | GI50 [4]: 13.5 µM (inactive) | GI50 [5]: 11 µM (inactive) | GI50 [6]: 34.8 µM (inactive) | GI50 [7]: 42.4 µM (inactive) | GI50 [8]: 27.8 µM (inactive) | GI50 [9]: 43.9 µM (inactive) | GI50 [10]: 29.9 µM (inactive) | GI50 [11]: 23.7 µM (inactive) | GI50 [12]: 44.9 µM (inactive) | GI50 [13]: 37.8 µM | GI50 [55]: 30.3 µM (inactive) | GI50 [14]: 19.7 µM (inactive) | GI50 [15]: 38.7 µM (inactive) | GI50 [16]: 49.1 µM (inactive) | GI50 [17]: 26.8 µM (inactive) | GI50 [18]: 19.3 µM (inactive) | GI50 [20]: 18.8 µM (inactive) | GI50 [21]: 53.1 µM (inactive) | GI50 [23]: 31.4 µM (inactive) | GI50 [24]: > 100 µM (inactive) | GI50 [25]: 34 µM (inactive) | GI50 [26]: 35.8 µM (inactive) | GI50 [27]: 82.4 µM (inactive) | GI50 [28]: 19.3 µM (inactive) | GI50 [29]: 55 µM (inactive) | GI50 [30]: 47.4 µM (inactive) | GI50 [31]: 23 µM (inactive) | GI50 [32]: 32.7 µM (inactive) | GI50 [33]: 25 µM (inactive) | GI50 [56]: 36.4 µM (inactive) | GI50 [57]: 28.8 µM (inactive) | GI50 [35]: 18.9 µM (inactive) | GI50 [36]: 33 µM (inactive) | GI50 [37]: 36.6 µM (inactive) | GI50 [38]: 20.6 µM (inactive) | GI50 [39]: 25.9 µM (inactive) | GI50 [40]: 29 µM (inactive) | GI50 [41]: 53.3 µM (inactive) | GI50 [42]: 44.7 µM (inactive) | GI50 [43]: 27.7 µM (inactive) | GI50 [44]: 40.6 µM (inactive) | GI50 [45]: 44.4 µM (inactive) | GI50 [46]: 33.7 µM (inactive) | GI50 [47]: 38.7 µM (inactive) | GI50 [48]: 40.6 µM (inactive) | GI50 [58]: 27.8 µM (inactive) | GI50 [49]: 29 µM (inactive) | GI50 [51]: 60.5 µM (inactive) | GI50 [52]: 35.4 µM (inactive) | GI50 [53]: 44 µM (inactive)
